# Experiment: method code SF-HPLC, from DOI: 10.1248/cpb.33.2403, PMID: 4064199
row,logP,SMILES
1,2.6,CC(Cc1ccccc1)OC(=O)N(C)C (stereo unspecified)
2,3.6,CCC(CC)COC(=O)N(CC)CC

# Experiment: method code SF-AS, from DOI: 10.1248/cpb.33.2403, PMID: 4064199
row,logP,SMILES
1,2.93,CN(C)C(=O)OCCCc1ccccc1
2,2.93,CCN(CC)C(=O)OCc1ccccc1
3,3.2,CCN(CC)C(=O)OCCc1ccccc1
4,2.54,CN(C)C(=O)OCCc1c[nH]c2ccccc12
5,3.3,CCN(CC)C(=O)OCCc1c[nH]c2ccccc12
6,2.87,CCC(CC)COC(=O)N(C)C
7,1.44,CN(C)C(=O)OCCCc1cccnc1
8,1.38,CC(C)OC(=O)N(C)C
9,2.82,CCN(CC)C(=O)OCC(C)C
10,2.4,CN(C)C(=O)OCCc1ccccc1

row,SMILES,logP
1,NC(=O)OCCCc1ccccc1,1.96
2,NC(=O)OCCCc1cccnc1,0.46
3,CCC(CC)COC(N)=O,1.98
4,NC(=O)OCCc1c[nH]c2ccccc12,1.69
5,NC(=O)OCCc1ccccc1,1.5
6,NC(=O)OCc1ccc(Cl)cc1,1.97
7,CNC(=O)OCc1ccccc1,1.68

# Experiment: method code SF-GLC, from DOI: 10.1248/cpb.33.2403, PMID: 4064199
row,SMILES,logP
1,CC(C)COC(=O)N(C)C,2
2,CC(C)COC(N)=O,0.98

# Reference: the SangsterLogP compilation
